The results in this text go back to PMC12627232 (MedComm, 2025).

One series relates to HeLa nuclear extract. Kind of series: HDAC inhibition, HeLa nuclear extract. Format: biochemical. The procedure: HDACs enzymatic assays were conducted according to our previous work. In detail, the HeLa nuclear extract, HDAC1 (BPS BIOSCIENCE INC, 50051), HDAC2 (BPS BIOSCIENCE Inc; 50052), HDAC3/NCOR1 complex (BPS BIOSCIENCE Inc; 50003), HDAC4 (BPS BIOSCIENCE Inc; 50004), HDAC5 (BPS BIOSCIENCE Inc; 50005), HDAC6 (BPS BIOSCIENCE Inc; 50006), HDAC7 (BPS BIOSCIENCE Inc; 50007), HDAC8 (BPS BIOSCIENCE Inc; 50008), HDAC9 (BPS BIOSCIENCE Inc; 50009), HDAC10 (BPS BIOSCIENCE Inc; 50010), or HDAC11 (BPS BIOSCIENCE Inc; 50011) was diluted to the proper concentrations according to the relative enzymatic activity and the linear range of the plate reader and mixed with different concentrations of drugs. Substrates (Boc‐Lys(acetyl)‐AMC for HeLa nuclear extract, Ac‐Leu‐Gly‐Lys (Tfa)‐AMC for HDAC4, HDAC5, HDAC6, HDAC7, HDAC9, HDAC10, and HDAC11, Boc‐Lys(triflouroacetyl)‐AMC for HDAC8 and Ac‐Leu‐Gly‐Lys(acetyl)‐AMC for HDAC1, HDAC2, HDAC3) were added to the mixture. The blank group was set to no enzyme or drug but contains substrates and the control group was set to no drug but contains substrates and enzymes to each 96‐well plate. After 30 min of incubation at 37°C, the mixture was terminated with 1 mg/mL trypsin and 3 µM TSA. After another 30 min, the fluorescence intensity was measured using a Varioskan plate reader at 360/460 nm. […] The inhibition curves and IC50 values were simulated and calculated using the log(inhibitor) versus response (three parameters) mode in GraphPad Prism software.

A further series has as its target T1, HDAC8 (Homo sapiens, UniProt Q9BY41).
T1 construct: purchased BPS BIOSCIENCE Inc 50008
Kind of series: HDACs enzymatic assay HDAC8. Format: biochemical. The procedure:
HDACs enzymatic assays were conducted according to our previous work. […] Substrates (Boc‐Lys(acetyl)‐AMC for HeLa nuclear extract, Ac‐Leu‐Gly‐Lys (Tfa)‐AMC for HDAC4, HDAC5, HDAC6, HDAC7, HDAC9, HDAC10, and HDAC11, Boc‐Lys(triflouroacetyl)‐AMC for HDAC8 and Ac‐Leu‐Gly‐Lys(acetyl)‐AMC for HDAC1, HDAC2, HDAC3) were added to the mixture. The blank group was set to no enzyme or drug but contains substrates and the control group was set to no drug but contains substrates and enzymes to each 96‐well plate. After 30 min of incubation at 37°C, the mixture was terminated with 1 mg/mL trypsin and 3 µM TSA. After another 30 min, the fluorescence intensity was measured using a Varioskan plate reader at 360/460 nm. […] The inhibition curves and IC50 values were simulated and calculated using the log(inhibitor) versus response (three parameters) mode in GraphPad Prism software.

The subject of the next series is MC38 syngeneic model. Kind of series: MC38 syngeneic model. It counts as in vivo. As to the method: C57BL/6J mice were obtained from HFK Bioscience (Beijing, China) and fed in laminar flow cabinets under SPF conditions. With the approval of the ethics committee of Shandong University, the animal experiments were conducted. […]. By the time tumors reached certain volumes, SDFZ‐8 treatment (SDFZ‐8 in PBS solution containing 5% DMSO, 60 mg/kg, qd, i.g.) was started, with five animals per treatment group. Body weight and tumor size were measured every day during the 14‐day treatment.

In series [1] the test system is MDA-MB-231 cells. Kind of series: Colony formation assay. It counts as cell-based, human. To be noted: 2 µM, 48 h. The procedure: The colony formation assay is performed by seeding 1000 MDA‐MB‐231 cells per well into 6‐well plates and allowing them to adhere overnight. […] Once colonies are visible (≥50 cells per colony), the medium is removed, and cells are gently washed with PBS, fixed with 4% paraformaldehyde for 15 min, and stained with Giemsa stain solution for 30 min. Excess stain is rinsed with water, and plates are air‐dried. Colonies are then imaged.

For series [2], the system named is MDA-MB-231 cells. Kind of series: TUNEL assay. Format: cell-based, human. The following applies: MDA-MB-231, 5 µM, 24 h. As to the method:
The TUNEL assay was performed with the one‐step TUNEL apoptosis kit (MeilunBio) according to the manual from the manufacturer. Briefly, cells (5 × 10^5 cells per plate) were seeded in confocal dishes and incubated with drugs for 24 h. The medium was removed, and cells were fixed with 4% polyoxymethylene solution for 30 min. Subsequently, cells were treated with 20 µg/mL protease K for 5 min and TUNEL working solution for 1 h at 37°C. Eventually, cells were captured with a Leica TCS SP8 super‐resolution laser scanning confocal microscope.

For series [3], the system named is immune cells of MC38 syngeneic model. Kind of series: Flow cytometry of tumor-infiltrating and spleen immune cells, MC38 model. It counts as in vivo, C57BL/6J mice. The procedure:
After 14 days, the tumors and spleens were split, and cells were isolated to analyze the change in cancer immunity. For TILs, the tumors were incubated with the tumor digestion fluid (collagenase and hyaluronic acid included) and then filtered with a 200‐gauge mesh and centrifuged (100×g, 1 min). The supernatant was centrifuged (400×g, 5 min) and precipitated cells were purified by 40% percoll solution followed by RBC lysis and washing. For splenocytes, the spleen was passed through a 200‐gauge mesh, and splenocytes were collected after RBC lysis and washing.
The prepared cell suspensions were incubated with rat serum at room temperature for 30 min to block the FC‐receptor and incubated with fluorescent antibodies at 4°C for 1 h. For Foxp3 staining, Foxp3/Transcription Factor Staining Buffer Set (eBioscience; #00‐5523‐00) was used. For intracellular cytokines staining, cells were pre‐stimulated with 1 µg/mL ionomycin (Beyotime; #S1672), 50 ng/mL PMA (Sigma; #P1585) and Brefeldin A (BioLegend; #420601) for 4 h. Flow cytometry was conducted with FACS Celesta (BD Biosciences, USA) and analyzed with FlowJo software.
(In general: A flow cytometer gives signals particle by particle.)

T1 sequence (Q9BY41 whole entry): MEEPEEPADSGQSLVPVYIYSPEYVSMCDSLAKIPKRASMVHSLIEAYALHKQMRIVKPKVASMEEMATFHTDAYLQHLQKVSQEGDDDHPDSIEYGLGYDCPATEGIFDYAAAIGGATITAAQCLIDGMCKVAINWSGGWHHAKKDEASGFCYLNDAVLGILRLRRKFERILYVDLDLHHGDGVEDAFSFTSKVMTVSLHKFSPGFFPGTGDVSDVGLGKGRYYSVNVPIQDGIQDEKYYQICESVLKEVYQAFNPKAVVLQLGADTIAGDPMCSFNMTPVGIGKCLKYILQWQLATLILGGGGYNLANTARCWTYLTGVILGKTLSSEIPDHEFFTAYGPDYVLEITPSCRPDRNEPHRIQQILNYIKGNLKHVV

Broadly, the IC50 is the concentration that inhibits the measured activity by half. On to `O=C(CCCCCCNC(=O)c1cc(OCCc2ccccc2)c2ccccc2n1)NO` [SDFZ-8], for which the IC50 in the series with HeLa nuclear extract (mean ± SD of three determinations, read-out: HDAC inhibitory activity IC50 (HeLa extract)) stood at 10 nM. Moreover, the “HDAC inhibitory activity surpassing LBH-589” value in the series on HeLa nuclear extract (versus LBH-589) stood at 2.5 fold. Also, the “HDAC inhibitory activity surpassing SAHA” value in the series with HeLa nuclear extract (versus SAHA) is on record as 28.6 fold. The compound also registered an IC50 on HDAC8 (Class I, mean ± SD of three) of 750 ± 70 nM. For the same compound, at HDAC8 (relative to HDAC1), the “selectivity toward HDAC8” value is “more than 800 fold”. In the series on MC38 syngeneic model, the “toxicity in organs (heart, liver, spleen, lung, kidney), H&E staining” value is listed as “low toxicity”. Moreover, the TGI in the series on MC38 syngeneic model (C57BL/6J mice, SDFZ-8 60 mg/kg qd i.g., 14-day treatment) came to 71%. Further, in the series on MDA-MB-231 cells [1], the “colony formation of MDA-MB-231” value is given as “significantly inhibited”. For the same compound, the “TUNEL green fluorescence (apoptosis)” value in the series with MDA-MB-231 cells [2] was “higher intensity of green fluorescence compared with SAHA”. For the same compound, in series [3], the “PD-1 expression in tumor-infiltrating CD4+ T cells and CD8+ T cells” value is listed as “did not affect”; the “PD-1 expression in tumor-infiltrating NK cells” value is “downregulated”; the “PD-L1 expression in tumor-infiltrating immune cells (DCs and macrophages)” value is “upregulation”; the “surface expression of MHC class II in DCs and macrophages” value is listed as “significantly increased”. For the same compound, the “tumor-infiltrating lymphocytes (TILs)” value in series [3] (CD4+ and CD8+ T cells) is reported as “more significant increase”. Moreover, in series [3] (CD206 marker), the “M2 polarization of TAMs” value is “suppressed”. Further, the “M1 polarization of TAMs” value in series [3] (iNOS marker) was “robustly promoted”. Also, in series [3] (spleen), the “PD-L1 and PD-1 expression in various immune cells in the spleen” value is reported as “significantly decreased”; the “proportion of CD4+ T cells, CD8+ T cells and NK cells in the spleen” value is “elevated”. The “expression of IFN-γ and TNF-α in CD4+ T cells and CD8+ T cells” value in series [3] (tumor) is recorded as “upregulation”.
